IC50 and Activity data for 15 compounds are collected here from ChEMBL document CHEMBL6092166, “Design, synthesis and enzymatic inhibition evaluation of novel 4-hydroxy Pd-C-Ⅲ derivatives as α-glucosidase and PTP1B dual-target inhibitors” (Eur J Med Chem, 2024).

Molecules are shown by their SMILES. Activity calls are given as the source filed them. No cut-off for these calls is given here.

In assay [1] the target is T1, Alpha glucosidase (Homo sapiens, UniProt O43451+P10253+P14410+Q2M2H8). In words: Inhibition of alpha-glucosidase (unknown origin) using p-NPG as substrate preincubated for 15 mins followed by substrate addition for 30 mins by absorbance based analysis. In kind it is protein assay.
Assay [2] concerns the target T2, Tyrosine-protein phosphatase non-receptor type 1 (Homo sapiens, UniProt P18031).
T2 sequence (P18031 whole entry): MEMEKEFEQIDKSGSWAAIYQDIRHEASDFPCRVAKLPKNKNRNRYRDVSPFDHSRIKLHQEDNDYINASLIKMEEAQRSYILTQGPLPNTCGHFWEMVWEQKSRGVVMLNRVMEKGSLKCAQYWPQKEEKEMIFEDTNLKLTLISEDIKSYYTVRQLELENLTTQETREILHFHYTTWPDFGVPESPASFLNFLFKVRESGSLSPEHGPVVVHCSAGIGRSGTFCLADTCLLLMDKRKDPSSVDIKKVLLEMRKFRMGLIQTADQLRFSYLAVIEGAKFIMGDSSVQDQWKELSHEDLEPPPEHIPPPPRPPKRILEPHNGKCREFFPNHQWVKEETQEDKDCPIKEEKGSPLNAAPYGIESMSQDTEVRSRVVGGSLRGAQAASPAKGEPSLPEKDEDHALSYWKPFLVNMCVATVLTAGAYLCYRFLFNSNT
In words: Inhibition of PTP1B (unknown origin) using pNPP as substrate preincubated for 10 mins followed by substrate addition for 20 mins by absorbance based analysis.

In assay [3] the target is T1, Alpha glucosidase. In words: Inhibition of alpha-glucosidase (unknown origin) using p-NPG as substrate incubated for 15 mins by spectrophotometric analysis. Format: protein assay.
Assay [4] has as its system Mus musculus. In words: Reduction in blood glucose concentration in male Kunming mouse at 20 mg/kg preadministered for 40 mins and measured after 120 mins by sucrose loading test. In kind it is functional, organism-based.
Assay [5] deals with Mus musculus. In words: Reduction in blood glucose concentration in male Kunming mouse assessed as decrease in glucose AUC at 20 mg/kg preadministered for 40 mins and measured after 120 mins by sucrose loading test relative to control. Format: functional, organism-based.
Assay [6] in a line: Inhibition of alpha-amylase (unknown origin). Further details: species or system Homo sapiens.

Broadly, the IC50 is the concentration that inhibits the measured activity by half. Lower therefore signals higher potency.

With `CCCc1cc(=O)oc2cc(OCCOC(=O)/C=C/c3ccc(Cl)cc3Cl)ccc12`, at Alpha glucosidase [1], the IC50 is > 300 µM.

As for `CC1(C)Oc2cc3oc(=O)ccc3cc2C[C@@H]1O` [DECURSINOL], the IC50 in assay [2] is 58.9 µM; against Alpha glucosidase [3] it was 65.3 µM.

As to `Cc1cc(OCCOC(=O)/C=C/c2ccc(Cl)cc2Cl)cc2oc(=O)cc(C)c12`, the IC50 at Alpha glucosidase [1] stood at 124.1 µM.

With `O=C(/C=C/c1ccc2ccccc2c1)OCCOc1ccc2ccc(=O)oc2c1`, at Alpha glucosidase [1], the IC50 is > 300 µM.

In the case of `O=C(OCCCCOc1ccc2ccc(=O)oc2c1)c1ccc(Cl)cc1Cl`, at Alpha glucosidase [1], the IC50 was > 300 µM.

Regarding `O=C(/C=C/c1cccc(F)c1)OCCOc1ccc2ccc(=O)oc2c1`, the IC50 against Alpha glucosidase [1] was > 300 µM.

`C[C@H]1O[C@H](O[C@H]2[C@H](O)[C@@H](O)[C@@H](O[C@H]3[C@H](O)[C@@H](O)C(O)O[C@@H]3CO)O[C@@H]2CO)[C@H](O)[C@@H](O)[C@@H]1N[C@H]1C=C(CO)[C@@H](O)[C@H](O)[C@H]1O` (some centres undefined) [ACARBOSE]: the result with Mus musculus [4] and in the assay on Mus musculus [5] was Active. In assay [6], the IC50 came out at 17.8 µM.

With `O=C(OCCCOc1ccc2ccc(=O)oc2c1)c1ccc(Cl)cc1Cl`, the IC50 against Alpha glucosidase [1] is > 300 µM.

On to `O=C(/C=C/c1cccc(Br)c1)OCCOc1ccc2ccc(=O)oc2c1`, for which the 50% inhibitory concentration (IC50) at Alpha glucosidase [1] is 132.7 µM.

Compound `O=C(/C=C/c1ccc(Br)cc1)OCCOc1ccc2ccc(=O)oc2c1` returned an IC50 at Alpha glucosidase [1] of 263.2 µM.

Take `COc1ccc(/C=C/C(=O)OCCOc2ccc3ccc(=O)oc3c2)cc1OC`: the concentration for half-maximal inhibition (IC50) at Alpha glucosidase [1] was > 300 µM.

For `C/C=C\C(=O)O[C@H]1[C@H](O)c2cc3ccc(=O)oc3cc2OC1(C)C`, the results for the IC50 (in assay [2]; against Alpha glucosidase [3]) were 5.4 µM and 77.3 µM, respectively.

For the compound `O=C(/C=C/c1ccc(F)cc1)OCCOc1ccc2ccc(=O)oc2c1`, the IC50 against Alpha glucosidase [1] is > 300 µM.

Take `O=C(/C=C/c1cccc(C(F)(F)F)c1)OCCOc1ccc2ccc(=O)oc2c1`: the IC50 against Alpha glucosidase [1] was > 300 µM.

Compound `O=C(/C=C/c1ccc(Cl)cc1)OCCOc1ccc2ccc(=O)oc2c1` registered an IC50 against Alpha glucosidase [1] of 283.2 µM.
